Measurements published in ChEMBL document CHEMBL4390649, “Fine-tuning the neuroprotective and blood-brain barrier permeability profile of multi-target agents designed to prevent progressive mitochondrial dysfunction” (Eur J Med Chem, 2019).
pIC50: −log10 of the molar value. Active and inactive are the calls of the source. No cut-off for these calls is given here.

Key:
SH-SY5Y [1] = test: Neuroprotective activity against TBHP-induced oxidative damage in human SH-SY5Y cells assessed as increase in cell viability at 10 uM pretreated for 24 hrs followed by TBHP stimulation measured after 4 hrs by MTT assay relative to control; format: functional, cell-based
[2] = Cytotoxicity against human SH-SY5Y cells assessed as cell metabolic activity at 50 uM incubated for 24 hrs by MTT assay relative to control; format: ADME, cell-based; details: read-out: Activity
[3] = Cytotoxicity against human HepG2 cells assessed as cell metabolic activity at 10 uM incubated for 48 hrs by resazurin assay relative to control; format: ADME, cell-based; details: read-out: Activity
[4] = Antioxidant activity assessed as DPPH radical scavenging activity measured after 45 mins by UV-Visible spectrophotometric based assay; format: functional
[5] = Antioxidant activity assessed as ABTS radical scavenging activity measured after 15 mins by UV-Visible spectrophotometric based assay; format: functional
[6] = Electrochemical behavior of the compound assessed as redox potential corrected toward saturated Ag/AgCl reference electrode by cyclic voltammetry
[7] = Electrochemical behavior of the compound assessed as redox potential corrected toward saturated Ag/AgCl reference electrode by differential pulse voltammetry
[8] = Metal chelating activity assessed as compound-Fe2+ complex formation at 100 uM incubated for 10 mins by ferrozine spectrophotometric assay
[9] = Cytotoxicity against human SH-SY5Y cells assessed as cell metabolic activity at 10 uM incubated for 24 hrs by MTT assay relative to control; format: ADME, cell-based; details: read-out: Activity
[10] = Cytotoxicity against human HepG2 cells assessed as cell metabolic activity at 50 uM incubated for 48 hrs by resazurin assay relative to control; format: ADME, cell-based; details: read-out: Activity
SH-SY5Y [11] = test: Induction of ROS generation in human SH-SY5Y cells at 50 uM incubated for 24 hrs by DCFH-DA probe based fluorescence assay relative to control; format: functional
SH-SY5Y [12] = test: Neuroprotective activity against TBHP-induced oxidative damage in human SH-SY5Y cells assessed as increase in cell viability at 50 uM pretreated for 24 hrs followed by TBHP stimulation measured after 4 hrs by MTT assay relative to control; format: functional
SH-SY5Y [13] = test: Cytotoxicity against human SH-SY5Y cells assessed as reduction in cell viability at 10 uM incubated for 24 hrs by MTT assay relative to control; format: cell-based
SH-SY5Y [14] = test: Cytotoxicity against human SH-SY5Y cells assessed as reduction in cell viability incubated for 24 hrs by MTT assay relative to control; format: cell-based
HepG2 = test: Cytotoxicity against human HepG2 cells assessed as reduction in cell viability incubated for 48 hrs by resazurin assay relative to control; format: cell-based; details: hepg2, 48 h
SH-SY5Y [15] = test: Neuroprotective activity against 6-OHDA-induced toxicity in human SH-SY5Y cells assessed as reduction in cell damage at 10 uM pretreated for 24 hrs followed by 6-OHDA challenge and measured after 24 hrs by MTT assay relative to control; format: functional; design: scale not given: the % may be the effect or the level left
SH-SY5Y [16] = test: Neuroprotective activity against 6-OHDA-induced toxicity in human SH-SY5Y cells assessed as reduction in cell damage at 10 to 50 uM pretreated for 24 hrs followed by 6-OHDA challenge and measured after 24 hrs by MTT assay relative to control; format: functional
SH-SY5Y [17] = test: Neuroprotective activity against H2O2-induced oxidative damage in human SH-SY5Y cells assessed as reduction in cell damage at 10 uM pretreated for 24 hrs followed by H2O2 challenge measured after 30 mins by MTT assay relative to control; format: functional

CS(=O)(=O)[O-].O=C(CCc1ccc(O)c(O)c1)NCCCCCCCCCC[P+](c1ccccc1)(c1ccccc1)c1ccccc1
Activity (SH-SY5Y [1]): inactive
viability at 24 h, 50 µM [2]: 72.5%
viability at 48 h, 10 µM [3]: 41.8%
pIC50 [4]: 4.23
pIC50 [5]: 4.52
Activity [6]: 122 mV
Activity [7]: 122 mV
Activity [8]: > 80%
viability at 24 h, 10 µM [9]: 96%
viability at 48 h, 50 µM [10]: 8.22%
Activity (SH-SY5Y [11]): 96.2%
Activity (SH-SY5Y [12]): inactive
Activity (SH-SY5Y [13]): < 45%
Activity (SH-SY5Y [14]): Dose-dependent effect
Activity (HepG2): Dose-dependent effect

CS(=O)(=O)[O-].O=C(Cc1ccc(O)c(O)c1)NCCCCCCCCCC[P+](c1ccccc1)(c1ccccc1)c1ccccc1
Activity (SH-SY5Y [1]): inactive
viability at 24 h, 50 µM [2]: 85.7%
viability at 48 h, 10 µM [3]: 85.2%
pIC50 [4]: 4.25
pIC50 [5]: 4.55
Activity [6]: 122 mV
Activity [7]: 122 mV
Activity [8]: > 80%
viability at 24 h, 10 µM [9]: 94.5%
viability at 48 h, 50 µM [10]: 10.7%
Activity (SH-SY5Y [11]): 103.4%
Activity (SH-SY5Y [12]): inactive
Activity (SH-SY5Y [14]): Dose-dependent effect
Activity (HepG2): Dose-dependent effect

CS(=O)(=O)[O-].O=C(/C=C/c1cc(O)c(O)c(O)c1)NCCCCCC[P+](c1ccccc1)(c1ccccc1)c1ccccc1
Activity (SH-SY5Y [15]): 19.8%
Activity (SH-SY5Y [1]): inactive
viability at 24 h, 50 µM [2]: 94%
viability at 48 h, 10 µM [3]: 105%
pIC50 [4]: 4.72
pIC50 [5]: 4.91
Activity [6]: 34 mV
Activity [7]: 709 mV
Activity [8]: > 80%
viability at 24 h, 10 µM [9]: 104%
viability at 48 h, 50 µM [10]: 94.7%
Activity (SH-SY5Y [11]): Active
Activity (SH-SY5Y [12]): inactive

O=C(NCCCCCCCCCC[P+](c1ccccc1)(c1ccccc1)c1ccccc1)c1ccc(O)c(O)c1.[Br-]
Activity (SH-SY5Y [1]): inactive
viability at 24 h, 50 µM [2]: 31.1%
viability at 48 h, 10 µM [3]: 44.6%
pIC50 [4]: 4.51
pIC50 [5]: 4.71
Activity [6]: 210 mV
Activity [7]: 210 mV
Activity [8]: > 80%
viability at 24 h, 10 µM [9]: 97.8%
viability at 48 h, 50 µM [10]: 2.4%
Activity (SH-SY5Y [11]): 68.4%
Activity (SH-SY5Y [16]): inactive
Activity (SH-SY5Y [17]): inactive
Activity (SH-SY5Y [12]): inactive
Activity (SH-SY5Y [13]): < 45%
Activity (SH-SY5Y [14]): Dose-dependent effect
Activity (HepG2): Dose-dependent effect

CS(=O)(=O)[O-].O=C(/C=C/c1ccc(O)c(O)c1)NCCCCCCCCCC[P+](c1ccccc1)(c1ccccc1)c1ccccc1
Activity (SH-SY5Y [1]): inactive
viability at 24 h, 50 µM [2]: 15.9%
viability at 48 h, 10 µM [3]: 9.19%
pIC50 [4]: 4.59
pIC50 [5]: 4.63
Activity [6]: 174 mV
Activity [7]: 174 mV
Activity [8]: > 80%
viability at 24 h, 10 µM [9]: 104%
viability at 48 h, 50 µM [10]: 8.24%
Activity (SH-SY5Y [11]): 132.5%
Activity (SH-SY5Y [16]): inactive
Activity (SH-SY5Y [12]): inactive
Activity (SH-SY5Y [13]): < 45%
Activity (SH-SY5Y [14]): Dose-dependent effect
Activity (HepG2): Dose-dependent effect
